Assay results as given in ChEMBL document CHEMBL4049445.

What was measured:
[1] = Antiviral activity against Influenza A virus A//HK/7/87 (H3N2) expressing wild-type M2 proton channel infected in MDCK cells assessed as reduction in plaque formation preincubated with virus for 1 hr followed by addition to cells measured after 72 hrs by crystal violet staining based assay; format: functional, cell-based, Influenza A virus (A/Hong Kong/7/1987(H3N2))
[2] = (§1) Cytotoxicity against MDCK cells assessed as reduction in cell viability after 72 hrs by MTS assay; format: cell-based, Canis lupus familiaris; settings: dog, MDCK cells
[3] = Antiviral activity against Influenza A virus A//HK/7/87 (H3N2) expressing wild-type M2 proton channel infected in MDCK cells assessed as reduction in viral yield after 24 hrs by RT-qPCR method; format: functional, Influenza A virus (A/Hong Kong/7/1987(H3N2))
[4] = tested on: MDCK; assay: as §1; format: cell-based, Canis lupus familiaris; settings: dog, mdck, 72 h
[5] = Antiviral activity against Influenza A virus (A2 Japan/305/57) H2N2 infected in MDCK cells assessed as reduction of virus-induced cytopathic effect after 4 to 5 days by MTS assay; format: functional, cell-based, Influenza A virus (A/Japan/305/1957(H2N2))
[6] = target: Matrix protein 2 (Influenza A virus (A/Udorn/307/1972(H3N2))) (UniProt P0DOF8); format: cell-based; settings: Influenza A virus (A/udorn/1972(H3N2)); 100 uM
[7] = target: Matrix protein 2 (Influenza A virus (A/Udorn/307/1972(H3N2))) (UniProt P0DOF8); format: cell-based; settings: Influenza A virus (A/udorn/1972(H3N2)); 100 uM; remark: listed apart in the source

Matrix protein 2 (Influenza A virus (A/Udorn/307/1972(H3N2))), sequence (P0DOF8 whole entry): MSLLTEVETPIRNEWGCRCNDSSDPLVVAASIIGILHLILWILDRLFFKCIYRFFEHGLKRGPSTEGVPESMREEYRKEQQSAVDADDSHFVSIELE

Structure (SMILES) | EC50 [1] [µM] | CC50 at 72 h [2] [µM] | EC99 [3] [µM] | CC50 [4] [µM] | EC50 [5] [µM] | inhibition [6] [%] | inhibition [7] [%]
C(=C1C2CC3CC(C2)CC1C3)C1CCNCC1 | > 5 | 25 | > 10 | – | – | – | –
NC12CC3CC(CC(C3)C1)C2 [AMANTADINE] | 0.14 | – | 0.51 | – | – | – | –
CC(N)C12CC3CC(CC(C3)C1)C2 (stereo not drawn) [RIMANTADINE] | 0.016 | – | 1.1 | > 500 | – | – | –
C1CC(CC2C3CC4CC(C3)CC2C4)CCN1 (stereo not drawn) | > 10 | – | > 2 | 15 | – | – | –
C1CCC(C23CC4CC(CC(C4)C2)C3)NC1 (stereo not drawn) | 1 | – | 3.5 | > 100 | 3.3 | – | –
OC1(C2CCNCC2)C2CC3CC(C2)CC1C3 (stereo not drawn) | > 100 | – | 76 | > 100 | – | 30 | 25
C1CC(C2C3CC4CC(C3)CC2C4)CCN1 (stereo not drawn) | – | – | ≥ 50 | > 100 | – | – | –
C1CC(C23CC4CC(CC(C4)C2)C3)CCN1 | 0.14 | – | ≥ 1.7 | 18 | – | – | –
CCN1CCC(C2C3CC4CC(C3)CC2C4)CC1 (stereo not drawn) | > 10 | – | > 10 | 25 | – | – | –
N=C(N)N1CCC(CC2C3CC4CC(C3)CC2C4)CC1 (stereo not drawn) | > 10 | – | > 2 | 3.8 | – | – | –
CN1CCC(CC2C3CC4CC(C3)CC2C4)CC1 (stereo not drawn) | > 10 | – | > 2 | 6.2 | – | – | –
N=C(N)N1CCC(C23CC4CC(CC(C4)C2)C3)CC1 | > 50 | – | > 2 | 10 | – | – | –
OC1(CC2CCNCC2)C2CC3CC(C2)CC1C3 (stereo not drawn) | 10 | – | > 50 | > 50 | – | – | –
N=C(N)N1CCC(C=C2C3CC4CC(C3)CC2C4)CC1 | > 5 | 19 | > 2 | – | – | – | –
